Experimental data: patent publication US5840911A, “Imidazole derivatives, their preparation and their use as S-adenosylmethionine decarboxylase (=SAMDC) inhibitors” (Novartis AG, priority 1995, dated 1998)
Where a name gives a salt, the structure may show the parent alone. Read-outs that look alike come from different tables or passages of the source.

Key:
[1] = target: T1, S-adenosylmethionine decarboxylase (SAMDC) (Rattus norvegicus, UniProt P17708); test: Inhibition of S-adenosylmethionine decarboxylase (SAMDC); assay type: biochemical; settings: read-out: IC50, inhibition of the enzyme SAMDC
T1 sequence (P17708 68-333 limits assumed): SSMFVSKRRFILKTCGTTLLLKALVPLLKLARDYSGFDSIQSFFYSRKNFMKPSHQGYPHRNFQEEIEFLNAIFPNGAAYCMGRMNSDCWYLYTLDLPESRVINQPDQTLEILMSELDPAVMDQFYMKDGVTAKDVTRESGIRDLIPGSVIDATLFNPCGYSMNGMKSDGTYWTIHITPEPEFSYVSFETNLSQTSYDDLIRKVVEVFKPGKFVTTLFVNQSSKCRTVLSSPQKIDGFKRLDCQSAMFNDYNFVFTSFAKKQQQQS
T1 sequence (P17708 1-67 limits assumed): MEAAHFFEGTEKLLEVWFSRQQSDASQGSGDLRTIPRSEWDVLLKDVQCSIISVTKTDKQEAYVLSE

[2] = system: human T24 bladder cell carcinomas; test: Inhibition of the growth of T24 bladder carcinoma cells in vivo (nude mouse); parameters: species or system human; BALB/c nude mice; settings: for T/C on i.p. administration / T/C on p.o. administration: average for 6 animals
Experimental: W. Porter (see Cancer Res. 54, 3210-3217 (1994)). Briefly, the procedure is as follows: To determine the maximum tolerable dose (MTD), the compounds according to the invention (for example dissolved in distilled water/0.9% NaCl) are injected i.p. into three mice per group. The dose is increased until the first animals die within a period of 10 days. To determine the anti-tumor activity, for example, small pieces of human T-24 bladder carcinoma cells (ATCC HTB 4) are cultured and transplanted as xenogenic transplants ("xenografts") into female BALB/c nude mice (Bomholtgarden, Copenhagen, Denmark). The anti-tumor treatment using compounds of formula I is started after at least three successive transplants. Tumor fragments weighing approximately 25 mg are transplanted into the left flank of the mouse (n=6 per group). Treatment is started as soon as the tumors have an average tumor volume of from 150 to 200 mm^3. The growth of the tumors is determined twice weekly by measuring mutually perpendicular tumor diameters. The tumor volumes are determined in the manner described by U. Regenass, H. Mett, J. Stanek, M. Muller, D. Kramer and C. W. Porter (see Cancer Res. 54 3210-3217 (1994)) and are given as relative tumor size (i.e. increase in tumor volume relative to the tumor volume at the beginning of treatment) in T/C % (percent treated/control). The test compounds are dissolved in distilled water and diluted with 3 volumes of 0.9% (w/v) NaCl in water.
Using the method mentioned hereinbefore (see also Regenass et al., Cancer Res. 54, 3210-3217 ([…])), the compound of Example 2 of the present Application is administered in accordance with the following treatment scheme to BALB/c nude mice with transplanted human T24 bladder cell carcinomas: The compound is administered p.o. (50, 25 and 12.5 mg/kg) or i.p. (12.5, 6.25 and 3.13 mg/kg). The compound is dissolved in distilled water and diluted with 3 volumes of 0.9% NaCl (w/v) in water.

[3] = Maximum tolerable dose (MTD); parameters: species or system mice; settings: mouse, in vivo, read-out: maximum tolerated dose
[4] = system: human T24 bladder carcinoma cells; test: Inhibition of the growth of human T24 bladder carcinoma cells; assay type: cell-based; settings: 120 h, 5 days incubation, concentration at half the maximum inhibition
Experimental: The carcinoma cells (1000-1500; ATCC HB 4) are transferred to 96-well microtitre plates and are incubated overnight under the said conditions. The test compound is added in serial dilutions on day 1. The plates are incubated under the said conditions for 5 days. During that period, control cultures undergo at least 4 cell divisions. After the incubation, the cells are fixed with 3.3% (weight/volume=w/v) aqueous glutaraldehyde solution, washed with water and stained with 0.05% (w/v) aqueous methylene blue solution. After washing, the dye is eluted with 3% (w/v) aqueous hydrochloric acid. The optical density (OD) per well, which is directly proportional to the number of cells, is then measured by means of a photometer (Titertek multiskan) at 665 nm. The IC50 values are calculated by means of a computer system using the formula [formula] The IC50 value is defined as the concentration of active ingredient at which the number of cells per well at the end of the incubation period is only 50% of the number of cells in the control cultures. The inhibition of the growth of human T24 bladder carcinoma cells is measured using the method mentioned hereinbefore. The following IC50 values (concentration of the test compound at half the maximum inhibition) are determined using the following Examples: […]

| IC50 [1] [nM] | IC50 [4] [nM] | Structure (SMILES) | other results |
| --- | --- | --- | --- |
| 3.6 | 2000 | COc1ccc(-c2cn(N=C3CCc4c(C(=N)N)cccc43)c(N)n2)cc1 [Example 4, 1-[4-(Amidino)-2,3-dihydro-1H-inden-1-ylideneamino]-2-amino-4-(4-methoxvphenyl)-imidazole dihydrochloride] |  |
| 8.4 | 1200 | COc1ccccc1-c1cn(N=C2CCc3c(C(=N)N)cccc32)c(N)n1 [Example 6, 1-[4-(Armidino)-2,3-dihydro-1H-inden-1-ylideneamino]-2-amino-4-(2-methoxyphenyl)-imidazole dihydrochloride] |  |
| 8.9 | 1600 | COc1ccc(OC)c(-c2cn(N=C3CCc4c(C(=N)N)cccc43)c(N)n2)c1 [Example 8, 1-[4-(Amidino)-213-dihydro-1H-inden-1-ylideneamino]-2-amino-4-(2,5-di-methoxyphenyl)-imidazole dihydrochloride] |  |
| 4.2 | 2600 | COc1cccc(-c2cn(N=C3CCc4c(C(=N)N)cccc43)c(N)n2)c1 [Example 10, 1-[4-(Amidino)-2,3-dihydro-1 1H-inden-1-ylideneamino]-2-amino-4-(3-methoxyphenyl)-imidazole dihydrochloride] |  |
| 6.7 | 1550 | N=C(N)c1cccc2c1CCC2=Nn1cc(-c2ccc(Cl)cc2)nc1N [Example 12, 1-[4-(Amidino)-2,3-dihydro-1H-inden-1-ylideneamino]-2-amino-4-(4-chlorophenyl)-imidazole dihydrochloride] |  |
| 3.4 | 1120 | Cc1ccc(-c2cn(N=C3CCc4c(C(=N)N)cccc43)c(N)n2)cc1 [Example 14, 1-[4-(Amidino)-2,3-dihydro-1H-inden-1-ylideneamino]-2-amino-4-(4-tolyl)-imidazole dihydrochloride] |  |
| 4 | 2700 | N=C(N)c1cccc2c1CCC2=Nn1cc(-c2ccc(F)cc2)nc1N [Example 16, 1-[4-(Amidino)-2,3-dihydro-1H-inden-1-ylideneamino]-2-amino-4-(4-fluoro-phenyl)-imidazole dihydrochloride] |  |
| 6.1 | 1500 | CCc1cn(N=C2CCc3c(C(=N)N)cccc32)c(N)n1 [Example 18, 1-[4-(Amidino)-2,3-dihydro-1H-inden-1-ylideneamino]-2-amino-4-ethyl-imidazole dihydrochloride] |  |
| 3.4 | 280 | N=C(N)c1cccc2c1CCC2=NN1CCN=C1N [Example 20, 1-[4-(Amidino)-2,3-dihydro-1H-inden-1-ylideneamino]-2-amino-4,5-di-hydro-imidazole dihydrochloride] |  |
| 11 | 440 | N=C(N)c1cccc2c1CCC2=Nn1cc(-c2ccc(-c3ccccc3)cc2)nc1N [Example 22, 1-[4-(Amidino)-2,3-dihydro-1H-inden-1-ylideneamino]-2-amino-4-(4-bi-phenylyl)-imidazole dihydrochloride] |  |
| 7.5 | 2460 | N=C(N)c1cccc2c1CCC2=Nn1cc(-c2ccc3ccccc3c2)nc1N [Example 24, 1-[4-(Amidino)-2,3-dihydro-1H-inden-1-ylideneamino]-2-amino-4-(2-naphthyl)-imidazole dihydrochloride] |  |
|  | 2150 | N=C(N)c1cccc2c1CCC2=Nn1ccnc1N [Example 26, 1-[4-(Amidino)-2,3-dihydro-1H-inden-1-ylideneamino]-2-amino-imidazole dihydrochloride] |  |
| 5.4 | 230 | CC(C)(C)c1ccc(-c2cn(N=C3CCc4c(C(=N)N)cccc43)c(N)n2)cc1 [Example 28, 1-[4-(Amidino)-2,3-dihydro-1H-inden-1-ylideneaminol-2-amino-4-(4-tert-butylphenyl)-imidazoledihydrochloride] |  |

| Structure (SMILES) | IC50 [1] [nM] | IC50 [4] [nM] | other results |
| --- | --- | --- | --- |
| N=C(N)c1cccc2c1CCC2=Nn1cc(-c2ccccc2)nc1N [Example 2, 1-[4-(Amidino)-2,3-dihydro-1H-inden-1: -ylideneamino]-2-amino-4-phenyl-imidazole dihydrochloride] | 2 | 1160 | T/C on i.p. administration ([2]; 3.13 mg/kg): 34%; T/C on i.p. administration ([2]; 6.25 mg/kg): 22%; T/C on i.p. administration ([2]; 12.5 mg/kg): 16%; growth of T24 bladder carcinoma cells in vivo (in words) ([2]; oral and intraperitoneal administration): inhibits the growth of T24 bladder carcinoma cells; dose-dependence of tumor growth inhibition ([2]; p.o. and i.p.): dose-dependence of the action is observed; T/C on p.o. administration ([2]; 12.5 mg/kg): 68%; T/C on p.o. administration ([2]; 25 mg/kg): 47%; T/C on p.o. administration ([2]; 50 mg/kg): 31%; MTD at 240 h ([3]; ip): 125 mg/kg; MTD at 240 h ([3]; po): > 500 mg/kg |
